Data taken from US9578880B2, “Acetyl co-enzyme A carboxylase herbicide resistant plants” (Colorado Wheat Research Foundation, Inc., priority 2011, dated 2017).

Assays:
[1] = system: quizalofop-tolerant wheat accessions vs non-mutant Hatcher wheat; experiment: Visual evaluation of injury to quizalofop; type: in vivo, Triticum aestivum L.; details: 21.05 g ai ha^-1; 28 DAT; nearly all of 18 quizalofop-tolerant accessions
Description: 18 quizalofop-tolerant accessions were treated with 21.05 g ai ha^−1 quizalofop, a discriminating dose based on previous studies. Plants were evaluated 28 days after treatment (DAT) for visible injury to quizalofop on a scale of 0 to 100%, with 0 being no injury and 100 being complete desiccation. Nearly all accessions evaluated in this study appeared more tolerant to quizalofop than non-mutant Hatcher wheat (FIG. 5). The accessions contained few completely dead plants, with the exception of the one accession not different than the background.

[2] = system: ACCase of non-mutagenized Hatcher winter wheat; experiment: In-vitro ACCase enzyme assay; type: biochemical, Triticum aestivum L.; details: 0.1, 1, 10, 100 μM
Description: (§1) An in-vitro enzyme assay was conducted to observe ACCase in conjunction with quizalofop directly to determine if the presence of ACCase mutations decreases the ability of herbicides to inhibit ACCase activity. Four quizalofop concentrations of 0.1, 1, 10, and 100 μM were included in the assay along with a non-treated control. The experiment included four accessions which included a representative from the three mutations detected and non-mutagenized wheat. […] Calculated at the I25 level, the resistant to susceptible value for the A genome was 4.57, the B genome was 3.57 and the D genome was 10.86.

[3] = system: ACCase, A genome nucleotide substitution (Ala2004Val); experiment: In-vitro ACCase enzyme assay; type: biochemical, Triticum aestivum L.
Description: as §1

[4] = system: ACCase, B genome nucleotide substitution (Ala2004Val); experiment: In-vitro ACCase enzyme assay; type: biochemical, Triticum aestivum L.
Description: as §1

[5] = system: ACCase, D genome nucleotide substitution (Ala2004Val); experiment: In-vitro ACCase enzyme assay; type: biochemical, Triticum aestivum L.; details: for ACCase tolerance compared with background: D genome substitution
Description: as §1

[6] = system: non-mutant Hatcher winter wheat (Accession 0); experiment: Cross-resistance study, plant survival after other ACCase herbicides (non-mutant check); type: in vivo, Triticum aestivum L.; details: Accession 0 (non-mutant check); clethodim 65, sethoxydim 264, fluazifop 361 g ai ha^-1, clethodim + 10.5 g ai ha^-1 quizalofop; 28 DAT
Description: (§2) A cross-resistance study was conducted within the ACCase herbicide mode of action using herbicides normally lethal to wheat. Clethodim, sethoxydim, and fluazifop were used at rates of 65, 264, and 361 g ai ha^−1, plus a treatment of clethodim and 10.5 g ai ha^−1 quizalofop. Seven DAT the tops of plants were cut off above the newest above-ground growing point. Binomial evaluation of plant survival was performed 28 DAT. Tolerance of quizalofop mutants to clethodim and sethoxydim was low (Table 1). The presence of any cross tolerance presents evidence that combining multiple homologous resistant ACCase genes into a single plant could lead to resistance to additional herbicides. At this stage only a third of the total ACCase in the plant would have a mutation and contain tolerance to ACCase inhibitors if the mutation is target-site-based.

[7] = system: quizalofop tolerant mutant wheat accessions; experiment: Cross-resistance study, plant survival after other ACCase herbicides (quizalofop tolerant mutants); type: in vivo, Triticum aestivum L.; details: 28 DAT
Description: as §2

[8] = Accession 1, clethodim 65, sethoxydim 264, fluazifop 361 g ai ha^-1, clethodim + 10.5 g ai ha^-1 quizalofop

SMILES	survival after application of ACCase herbicide [6] [%]	survival after application of ACCase herbicide [7, 8] [%]	survival after application of ACCase herbicide ([7]; Accession 2, same rates) [%]	survival after application of ACCase herbicide ([7]; Accession 3, same rates) [%]	survival after application of ACCase herbicide ([7]; Accession 4, same rates) [%]	survival after application of ACCase herbicide ([7]; Accession 5, same rates) [%]	survival after application of ACCase herbicide ([7]; Accession 6, same rates) [%]	survival after application of ACCase herbicide ([7]; Accession 7, same rates) [%]	survival after application of ACCase herbicide ([7]; Accession 8, same rates) [%]	survival after application of ACCase herbicide ([7]; Accession 9, same rates) [%]	survival after application of ACCase herbicide ([7]; Accession 10, same rates) [%]	survival after application of ACCase herbicide ([7]; Accession 11, same rates) [%]	survival after application of ACCase herbicide ([7]; Accession 12, same rates) [%]	survival after application of ACCase herbicide ([7]; Accession 13, same rates) [%]	survival after application of ACCase herbicide ([7]; Accession 14, same rates) [%]	survival after application of ACCase herbicide ([7]; Accession 15, same rates) [%]	survival after application of ACCase herbicide ([7]; Accession 16, same rates) [%]	survival after application of ACCase herbicide ([7]; Accession 17, same rates) [%]	other results
CC(Oc1ccc(Oc2cnc3cc(Cl)ccc3n2)cc1)C(=O)O (stereo not shown) [quizalofop]																			visible injury, tolerance of accessions compared with non-mutant Hatcher wheat [1]: more tolerant; sensitivity of ACCase compared with the mutant accessions [2]: greater sensitivity; ACCase tolerance compared with background ([3]; 100 μM, A genome substitution): higher than background tolerance; resistant to susceptible value calculated at the I25 level ([3]; A genome mutant vs non-mutagenized wheat): 4.57; ACCase tolerance compared with background ([4]; 10 μM, B genome substitution): higher than background levels of tolerance; resistant to susceptible value calculated at the I25 level ([4]; B genome mutant vs non-mutagenized wheat): 3.57; ACCase tolerance compared with background ([5]; 10 μM): higher than background levels of tolerance; ACCase tolerance compared with background ([5]; 100 μM): higher than background tolerance; resistant to susceptible value calculated at the I25 level ([5]; D genome mutant vs non-mutagenized wheat): 10.86
CC(Oc1ccc(Oc2ccc(C(F)(F)F)cn2)cc1)C(=O)O (stereo not shown) [Fluazifop, fluazifop]	0	0	0	0	0	0	0	0	0	0	0	0	0	0	0	0	0	0	
CCC/C(=N\OCC)C1=C(O)CC(CC(C)SCC)CC1=O (stereo not shown) [Sethoxydim, sethoxydim]	0	0	0	0	0	0	0	0	0	0	0	8	8	0	0	0	0	0	Tolerance of quizalofop mutants (cross-resistance) ([7]; clethodim 65, sethoxydim 264 g ai ha^-1): low
CCSC(C)CC1CC(=O)C(/C(CC)=N/OC/C=C/Cl)=C(O)C1 (stereo not shown) [Clethodim, clethodim]	0	10	0	0	0	0	0	0	25	17	0	0	17	0	0	0	0	0	
